According to ChEMBL document CHEMBL1145454, “Endiandrin A, a potent glucocorticoid receptor binder isolated from the Australian plant Endiandra anthropophagorum” (J Nat Prod, 2007):

molecular target: T1, Glucocorticoid receptor (Homo sapiens, UniProt P04150); experiment: Binding affinity to glucocorticoid receptor by GR binding assay
T1 sequence (P04150 whole entry): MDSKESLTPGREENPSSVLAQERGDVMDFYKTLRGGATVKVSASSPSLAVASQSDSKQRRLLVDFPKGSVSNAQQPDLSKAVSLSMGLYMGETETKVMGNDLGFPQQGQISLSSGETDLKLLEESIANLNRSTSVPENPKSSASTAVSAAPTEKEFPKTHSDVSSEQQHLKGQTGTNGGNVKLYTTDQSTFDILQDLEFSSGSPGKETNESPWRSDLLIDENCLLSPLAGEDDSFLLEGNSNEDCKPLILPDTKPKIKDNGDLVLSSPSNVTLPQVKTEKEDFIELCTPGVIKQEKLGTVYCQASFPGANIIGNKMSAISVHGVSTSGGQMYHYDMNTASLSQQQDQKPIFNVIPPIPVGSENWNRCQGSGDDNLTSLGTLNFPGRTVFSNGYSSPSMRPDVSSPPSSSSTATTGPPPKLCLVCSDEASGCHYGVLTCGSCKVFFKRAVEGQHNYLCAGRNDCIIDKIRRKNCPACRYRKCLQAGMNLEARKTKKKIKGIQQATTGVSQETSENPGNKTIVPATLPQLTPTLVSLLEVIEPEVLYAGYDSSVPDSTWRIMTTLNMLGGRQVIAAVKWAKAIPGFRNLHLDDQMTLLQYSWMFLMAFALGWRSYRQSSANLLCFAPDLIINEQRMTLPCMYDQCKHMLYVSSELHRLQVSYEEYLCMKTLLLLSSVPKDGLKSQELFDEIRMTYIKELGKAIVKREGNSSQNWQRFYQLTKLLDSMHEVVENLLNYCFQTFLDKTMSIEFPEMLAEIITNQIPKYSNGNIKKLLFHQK

| Structure (SMILES) | IC50 [µM] |
| --- | --- |
| COc1cc(C[C@@H](C)[C@H](C)Cc2ccc(O)c(OC)c2)ccc1O [(-)-DIHYDROGUAIARETICACID] | 35 |
| COc1cc([C@@H]2[C@@H](C)[C@H](C)[C@H]2c2ccc(OC(C)=O)c(OC)c2)ccc1OC(C)=O [DI-O-ACETYLENDIANDRIN A] | 34 |
| COc1cc([C@@H]2[C@@H](C)[C@H](C)[C@H]2c2ccc(O)c(OC)c2)ccc1O [ENDIANDRIN A] | 0.9 |

The next lines start with the values.

| IC50 [µM] | Structure (SMILES) |
| --- | --- |
| 13 | COc1ccc([C@@H]2[C@@H](C)[C@H](C)[C@H]2c2ccc(OC)c(OC)c2)cc1OC [DI-O-METHYLENDIANDRIN A] |
| 27 | COc1cc([C@H]2O[C@@H](c3ccc(O)c(OC)c3)[C@H](C)[C@@H]2C)ccc1O [NECTANDRIN B] |
